Measurements published in patent US11214803B2, “Modulators of YAP1 expression” (Ionis Pharmaceuticals, Inc., priority 2019, dated 2022).
Strand notation (5' to 3'): a small letter for the sugar, then the base; units joined by * are phosphorothioate-linked, units joined directly phosphodiester-linked; [ ] holds rarer units or linkages, { } end groups; capitals alone tell only the bases. k = constrained ethyl (cEt); [5mC] = 5-methylcytosine; d = 2'-deoxy (DNA)

Tested on: Yap1 mRNA
Experiment: Antisense inhibition of human Yap1 in A-431 cells by cEt gapmers, single dose (Example 4, RTS4814)
Type: cell-based
Conditions: Table 14; A-431 cells, 5,000 cells per well, free uptake, 2,000 nM, approximately 48 hours; RTS4814; normalized to RIBOGREEN; Yap1 mRNA relative to untreated control; * = targets amplicon region of primer probe set
How it was run: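 Values are % UTC: Yap1 mRNA by quantitative RT-PCR, normalized to RIBOGREEN total RNA. Cells were exposed ~48 h to 2,000 nM oligonucleotide without transfection. Oligonucleotides were 16-nucleoside gapmers with three cEt nucleosides per wing, ten-deoxy gap, P=S linkages throughout.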

Substance | YAP1 (% UTC)
1075648 (kT*k[5mC]*kA*dA*dT*dA*dA*dA*dG*dT*dG*dG*dG*kA*k[5mC]*kT; antisense) [Compound 1075648] | 67 % UTC
1074976 (antisense kT*kT*k[5mC]*dT*dA*dT*dT*dG*dG*dA*dA*dG*dA*k[5mC]*k[5mC]*kA) [Compound 1074976] | 35 % UTC
1076224 (kT*kA*kT*dA*dA*dA*d[5mC]*d[5mC]*dT*dT*dG*d[5mC]*dT*kA*k[5mC]*kA; antisense) [Compound 1076224] | 67 % UTC
1076096 (kA*kA*kT*dA*dA*dT*dA*dA*dA*d[5mC]*dG*dA*dT*kT*k[5mC]*kT; antisense) [Compound 1076096] | 71 % UTC
1076128 (kT*k[5mC]*kT*dA*dA*dA*d[5mC]*d[5mC]*dT*dA*dA*dA*dG*kA*k[5mC]*kT; antisense) [Compound 1076128] | 118 % UTC
1074784 (k[5mC]*k[5mC]*kA*dT*dA*dA*dG*dT*dA*dG*dA*dT*d[5mC]*kT*kA*kA; antisense) [Compound 1074784] | 25 % UTC

Same assay, conditions: Table 15; A-431 cells, 5,000 cells per well, free uptake, 2,000 nM, approximately 48 hours; RTS4814; normalized to RIBOGREEN; Yap1 mRNA relative to untreated control; * = targets amplicon region of primer probe set

Substance | YAP1 (% UTC)
1076033 (k[5mC]*kA*kT*dT*dA*dG*dT*dA*dG*dG*dT*dA*dT*kT*kT*k[5mC]; antisense) [Compound 1076033] | 8 % UTC
1075169 (antisense kA*kA*kA*dA*d[5mC]*dG*dG*dA*dG*dT*dA*dA*dT*kG*k[5mC]*k[5mC]) [Compound 1075169] | 39 % UTC
1076545 (antisense kA*kA*k[5mC]*d[5mC]*dA*dA*d[5mC]*d[5mC]*dT*dT*d[5mC]*d[5mC]*d[5mC]*kT*kA*k[5mC]) [Compound 1076545] | 68 % UTC
1075009 (antisense kA*kT*kA*dA*dT*d[5mC]*dG*dA*dA*d[5mC]*dA*dT*dT*kG*kT*kG) [Compound 1075009] | 43 % UTC
1075233 (antisense kG*kT*kA*dA*dT*dT*dT*dA*dT*d[5mC]*dA*dG*d[5mC]*k[5mC]*kA*kT) [Compound 1075233] | 2 % UTC
1074753 (kT*kA*k[5mC]*dA*dT*dT*dA*dG*dG*dA*dA*d[5mC]*dA*kA*kG*kG; antisense) [Compound 1074753] | 4 % UTC
1074561 (antisense kA*kA*kT*dT*d[5mC]*d[5mC]*dA*dA*dT*d[5mC]*dG*dA*dG*kA*k[5mC]*kT) [Compound 1074561] | 10 % UTC
1076097 (k[5mC]*kA*kA*dT*dA*dA*dT*dA*dA*dA*d[5mC]*dG*dA*kT*kT*k[5mC]; antisense) [Compound 1076097] | 70 % UTC

Same assay, conditions: Table 16; A-431 cells, 5,000 cells per well, free uptake, 2,000 nM, approximately 48 hours; RTS4814; normalized to RIBOGREEN; Yap1 mRNA relative to untreated control cells

Substance | YAP1 (% UTC)
1075650 (kA*kT*kA*dT*dT*dA*d[5mC]*dA*dA*dT*d[5mC]*d[5mC]*d[5mC]*kA*kG*k[5mC]; antisense) [Compound 1075650] | 48 % UTC
1075522 (k[5mC]*kA*kA*dA*dT*d[5mC]*dG*dA*dG*dG*d[5mC]*dG*dA*kA*kT*k[5mC]; antisense) [Compound 1075522] | 82 % UTC
1075266 (antisense kT*kA*kT*dT*dA*dG*dG*dA*d[5mC]*dA*dA*dA*dG*kT*kA*k[5mC]) [Compound 1075266] | 57 % UTC
1074466 (kA*k[5mC]*k[5mC]*dG*dA*d[5mC]*d[5mC]*d[5mC]*dT*dG*d[5mC]*d[5mC]*dA*kA*kA*kA; antisense) [Compound 1074466] | 32 % UTC
1075746 (kG*kA*kT*dT*dA*dA*d[5mC]*d[5mC]*d[5mC]*dA*dG*dT*dA*kG*kA*kG; antisense) [Compound 1075746] | 28 % UTC
1076002 (kA*kT*kT*dT*dA*dA*dT*dG*dG*d[5mC]*dT*dT*dG*k[5mC]*kA*kT; antisense) [Compound 1076002] | 21 % UTC

Same assay, conditions: Table 17; A-431 cells, 5,000 cells per well, free uptake, 2,000 nM, approximately 48 hours; RTS4814; normalized to RIBOGREEN; Yap1 mRNA relative to untreated control cells

Substance | YAP1 (% UTC)
1074147 (antisense kA*kG*kA*dA*dG*d[5mC]*dG*dG*d[5mC]*dG*dA*d[5mC]*dG*kG*k[5mC]*kT) [Compound 1074147] | 23 % UTC
1075555 (kG*k[5mC]*k[5mC]*dA*dA*dA*dA*dA*dT*dT*d[5mC]*dT*dT*kG*k[5mC]*kA; antisense) [Compound 1075555] | 92 % UTC
1074723 (antisense kG*kG*kT*dA*dA*dA*dG*dG*dA*dA*dG*dA*dT*k[5mC]*kT*k[5mC]) [Compound 1074723] | 6 % UTC
1074275 (antisense k[5mC]*kA*kA*dG*dA*dG*dG*dT*dG*dG*dT*d[5mC]*dT*kT*kG*kT) [Compound 1074275] | 73 % UTC
1075427 (antisense kT*kA*kT*dA*dA*dG*dG*d[5mC]*dA*dT*d[5mC]*dT*dT*kG*kG*kA) [Compound 1075427] | 60 % UTC
1076067 (kG*k[5mC]*kA*dT*dA*dT*dA*dA*dG*dA*dT*dG*dT*kT*kT*kG; antisense) [Compound 1076067] | 4 % UTC
1076195 (kA*kA*kT*dA*dA*d[5mC]*dA*dT*dG*dG*dT*dT*d[5mC]*kT*kG*kT; antisense) [Compound 1076195] | 20 % UTC
1075907 (kA*kA*kT*dT*dA*d[5mC]*dT*dA*d[5mC]*dT*dG*dG*d[5mC]*k[5mC]*kA*kT; antisense) [Compound 1075907] | 55 % UTC
1074979 (antisense kA*kT*kT*dG*d[5mC]*d[5mC]*dA*dG*dT*dT*d[5mC]*dT*dT*kG*kT*kT) [Compound 1074979] | 32 % UTC
1075267 (antisense k[5mC]*kT*kA*dT*dT*dT*dA*dG*dA*dA*dT*dA*dA*kG*kT*kG) [Compound 1075267] | 83 % UTC
1076451 (k[5mC]*k[5mC]*kT*dT*dA*dA*dG*dA*dA*d[5mC]*dA*dT*dG*kA*kG*kG; antisense) [Compound 1076451] | 77 % UTC
1075107 (antisense kT*kA*kA*dA*dA*dA*d[5mC]*dA*dT*dT*dG*dT*dG*kG*k[5mC]*k[5mC]) [Compound 1075107] | 114 % UTC
1076547 (antisense kG*kA*k[5mC]*d[5mC]*dA*dA*d[5mC]*d[5mC]*dT*d[5mC]*d[5mC]*d[5mC]*dT*k[5mC]*kA*kG) [Compound 1076547] | 89 % UTC
1075171 (antisense k[5mC]*k[5mC]*k[5mC]*d[5mC]*dA*dA*dT*dA*dT*dA*dA*dA*dG*kA*kA*k[5mC]) [Compound 1075171] | 88 % UTC

Same assay, conditions: Yap1 mRNA remaining as percent of untreated control; 3-10-3 cEt gapmers; A-431 cells; Table 36

Substance | YAP1 (% UTC)
1075254 (kT*k[5mC]*k[5mC]*d[5mC]*dA*dA*dA*dA*dG*dT*d[5mC]*dA*dT*k[5mC]*kG*k[5mC]; antisense) [compound 1075254] | 28 % UTC
1075734 (kA*kG*kG*d[5mC]*dA*dA*dT*dA*dA*d[5mC]*d[5mC]*dT*d[5mC]*kG*kA*kG; antisense) [compound 1075734] | 26 % UTC
1074966 (antisense kA*kT*kT*dG*dA*dA*dG*dT*dG*dT*dT*dT*dA*kG*kG*k[5mC]) [compound 1074966] | 9 % UTC
1075062 (antisense k[5mC]*kT*kT*dT*dA*dA*d[5mC]*d[5mC]*dT*dT*dA*dT*dA*k[5mC]*kT*kT) [compound 1075062] | 58 % UTC

Same assay, conditions: Yap1 mRNA remaining as percent of untreated control; 3-10-3 cEt gapmers; A-431 cells; Table 37

Substance | YAP1 (% UTC)
1074199 (antisense kG*k[5mC]*k[5mC]*dG*dG*dT*dT*dG*d[5mC]*d[5mC]*d[5mC]*dG*dG*kG*kT*k[5mC]) [compound 1074199] | 101 % UTC
1074839 (kT*kA*kT*dA*dA*d[5mC]*dA*dA*d[5mC]*dA*dT*dG*d[5mC]*kT*kT*kG; antisense) [compound 1074839] | 33 % UTC
1075575 (antisense kT*kT*kA*d[5mC]*dA*dA*d[5mC]*dA*d[5mC]*dA*dA*dG*dT*k[5mC]*kT*kA) [compound 1075575] | 55 % UTC
1075735 (kG*kA*kA*dT*d[5mC]*dG*dA*dT*dG*dT*dG*dT*dT*kG*k[5mC]*kG; antisense) [compound 1075735] | 17 % UTC
1074263 (antisense kA*kG*k[5mC]*d[5mC]*dG*dA*dG*dT*dT*d[5mC]*dA*dT*d[5mC]*kA*kT*kA) [compound 1074263] | 34 % UTC
1075191 (kA*k[5mC]*kG*dG*dG*dA*dA*dA*dG*dA*dA*dA*dG*kG*k[5mC]*k[5mC]; antisense) [compound 1075191] | 83 % UTC
1074871 (kT*kG*kT*dA*dA*dG*dT*dA*d[5mC]*d[5mC]*dT*dA*dA*k[5mC]*kA*kT; antisense) [compound 1074871] | 70 % UTC
1075767 (kT*kA*kT*dT*dA*d[5mC]*dA*d[5mC]*dA*dG*dG*d[5mC]*dA*kG*kG*k[5mC]; antisense) [compound 1075767] | 12 % UTC
1074967 (antisense kG*kA*k[5mC]*dA*dA*dA*dT*dT*dG*dA*dA*dG*dT*kG*kT*kT) [compound 1074967] | 116 % UTC
1074903 (antisense k[5mC]*k[5mC]*kT*dA*dT*dT*dA*dA*d[5mC]*dT*dT*dT*dT*kG*kG*kG) [compound 1074903] | 87 % UTC

Same assay, conditions: table after Table 37, headed TABLE 32 (gapmers targeting SEQ ID NO.: 3); A-431 cells, free uptake, 2,000 nM, approximately 48 hours, RTS4814

Substance | YAP1 (% UTC)
1074885 (kA*kG*kG*dG*d[5mC]*dT*dA*dA*d[5mC]*dT*d[5mC]*d[5mC]*dT*kG*k[5mC]*k[5mC]; antisense) [compound 1074885] | 115 % UTC
